The values that follow come from US20150126551A1, “USE OF A […] HALIDE DERIVATIVE IN THE TREATMENT OF NEURODEGENERATIVE DISEASES” (Orphazyme ApS, priority 2003, published 2015).

Each structure is given as a SMILES string.

In assay [1] the test system is mSOD1^(G93A) transgenic mice. Conditions: mouse, in vivo.
The test system of assay [2] is mSOD1^(G93A) transgenic mice. The source says:
Transgenic mSOD1^(G93A) mice of both sexes were used in this study.

On to `O=C(O)CC(O)(CC(=O)O)C(=O)O.[O-][n+]1cccc(C(Cl)=NOC[C@H](O)CN2CCCCC2)c1` [compound A, (+)-R-N-[2-hydroxy-3-(1-piperidinyl)-propoxy]-pyridine-1-oxide-3-carboximidoyl chloride citrate], for which the “motoneurons surviving in the sciatic motor pool (mean +/- S.E.M.)” value in assay [1] was 412+/−28. Besides, in assay [2] (10 mg/kg i.p. daily from 35 days of age, 120 days of age, n=10, p=0.030 vs untreated (43.3 ms), wild-type 25.8 ms), the “half relaxation time of EDL (mean +/- S.E.M.)” value is on record as 32.2 ms. Further, in assay [2] (10 mg/kg i.p. daily from 35 days of age, assessed at 120 days of age, n=10, p=0.003 vs untreated (8.3), wild-type 28), the “motor units survived in EDL muscles (mean +/- S.E.M.)” value was 14.3 +/−0.6. For the same molecule, in assay [2] (10 mg/kg i.p. daily, 120 days of age, stimulation 40 Hz, 3 minutes, n=10, p<0.05 vs untreated (0.255), wild-type 0.848), the “fatigue index (FI) of EDL (mean +/- S.E.M.)” value is 0.416+/−0.07. In addition, the “average lifespan (mean +/- S.E.M.)” value in assay [2] (treated mSOD1^(G93A) mice, n=7, untreated 125 days, endpoint: inability to right itself and loss of approximately 20% body weight) amounted to 153 ± 2.6 days. Further, the “decline in body weight” value in assay [2] (treated vs untreated mSOD1^(G93A) mice) is on record as “delayed”. Moreover, in assay [2] (treated vs untreated mSOD1^(G93A) mice, p<0.001), the increase in lifespan result is recorded as “over 22%”.
